Measurements: ChEMBL document CHEMBL5584254, “Identification of N-(((1S,3R,5S)-adamantan-1-yl)methyl)-3-((4-chlorophenyl)sulfonyl)benzenesulfonamide as novel Nav1.8 inhibitor with analgesic profile” (Bioorg Med Chem Lett, 2024)
Each block holds one compound with its values, some of them ahead of it. The source made the active and inactive calls.

Tests used:
[1] = tested on: Mus musculus; test: Analgesic activity in CFA-induced inflammatory pain mouse model assessed as increase in mechanical pain threshold at 10 mM, ip measured upto 5 hrs by von frey test; format: functional, organism-based
[2] = tested on: HEK293; test: Binding affinity to Nav1.8 (unknown origin) expressed in HEK293 cells assessed as retention time by cell membrane chromatography analysis; format: cell membranes; conditions: Homo sapiens
[3] = tested on: Mus musculus; test: Analgesic activity in CFA-induced inflammatory pain mouse model assessed as effect on intensity of pain relief by measuring delta AUC at 10 mM, ip by von frey test; format: functional, organism-based
[4] = species on record: Homo sapiens; test: Inhibition of Nav1.8 (unknown origin) at 10 uM under resting state by whole-cell patch clamp analysis relative to control
[5] = tested on: Mus musculus; test: Analgesic activity in CFA-induced inflammatory pain mouse model assessed as inhibition of mechanical hyperalgesia by measuring delta AUC at 10 mM, ip by von frey test; format: functional, organism-based
[6] = tested on: Mus musculus; test: Analgesic activity in CFA-induced inflammatory pain mouse model assessed as increase in mechanical pain threshold at 10 mM, ip measured within 5 hrs by von frey test; format: functional, organism-based
[7] = tested on: Mus musculus; test: Analgesic activity in CFA-induced inflammatory pain mouse model assessed as effect on duration of pain relief by measuring delta AUC at 10 mM, ip by von frey test; format: functional, organism-based
[8] = tested on: Nav1.8 (SCN10A); test: Inhibition of Nav1.8 (unknown origin) at 10 uM under half […] state by whole-cell patch clamp analysis relative to control; conditions: human

Structure (SMILES): Cc1ccc(CS(=O)(=O)c2cn(CC(=O)Nc3ccc(F)cc3F)c3ccccc23)cc1
Activity [1]: Active
Retention time [2]: 14.7 min

Structure (SMILES): Cc1cc2oc(=O)cc(C)c2c(O)c1C1=NNC(c2ccc3c(c2)OCO3)C1 (stereo not given)
Retention time [2]: 0.4 min

Structure (SMILES): CCC1(C)Oc2ccc(NS(=O)(=O)c3ccc4c(c3)Cc3ccccc3-4)cc2O1 (stereo not given)
Retention time [2]: 0.4 min

Structure (SMILES): COc1cccc(C2C3=C(CC4=C2C(=O)CC(C)(C)C4)CC(C)(C)CC3=O)c1OCC(=O)O
Retention time [2]: 1.2 min

Structure (SMILES): O=C(Cc1cccc2ccccc12)NN1C(=O)C2C3C=CC(C3)C2C1=O (stereo not given)
Retention time [2]: 1.9 min

Structure (SMILES): O=C(Cc1ccccc1)N/N=C/c1c2ccccc2cc2ccccc12
Retention time [2]: 0.4 min

Structure (SMILES): COc1ccc(/C=N/NC(=O)NC23CC4CC(C2)CC(c2ccc(C)cc2)(C4)C3)cc1
Retention time [2]: 0.4 min

inhibition [4]: 14.3%
inhibition at 10 µM [8]: 63.8%
Structure (SMILES): O=S(=O)(NCC12CC3CC(CC(C3)C1)C2)c1cccc(S(=O)(=O)c2ccc(Cl)cc2)c1
Activity [3]: Active
Activity [1]: Active
Activity [5]: Active
Activity [6]: Active
Retention time [2]: 56 min
Activity [7]: Active

Structure (SMILES): CN1c2ccc(F)cc2C(C)(C)C12C=Cc1cc([N+](=O)[O-])ccc1S2 (stereo not given)
Retention time [2]: 0.4 min

Structure (SMILES): Cc1cc(OCC(=O)Nc2ccc(C(C)(C)C)cc2)c2c3c(c(=O)oc2c1)CCC3
Retention time [2]: 0.4 min

inhibition [4]: 6.49%
inhibition at 10 µM [8]: 11.1%
Structure (SMILES): Cc1ccccc1C1CC(=O)C2=C(C1)NC(=O)C(CC(=O)Nc1cccc(Cl)c1C)C2 (stereo not given)
Activity [3]: Active
Activity [1]: Active
Activity [5]: Active
Activity [6]: Active
Retention time [2]: 5.76 min
Activity [7]: Active

Structure (SMILES): O=[N+]([O-])c1cccc(C2Oc3ccccc3C3CC(c4ccc(F)cc4)=NN32)c1 (stereo not given)
Retention time [2]: 0.4 min

Structure (SMILES): O=S(=O)(NCC12CC3CC(CC(C3)C1)C2)c1ccc(Cl)c2ccccc12
Retention time [2]: 0.4 min

inhibition [4]: 62.1%
Structure (SMILES): COc1cc(NC(=O)c2ccc(-c3ccc(Cl)cc3)o2)cc(OC)c1
Retention time [2]: 120 min

Structure (SMILES): Cc1ccc(C)c(Cn2cccc2CNC(=O)NC23CC4CC(CC(C4)C2)C3)c1
Retention time [2]: 0.4 min

Structure (SMILES): CC1Oc2ccccc2CC1/C=C1/Oc2cc(OC(=O)c3ccc4c(c3)OCO4)ccc2C1=O (stereo not given)
Retention time [2]: 0.4 min

Structure (SMILES): Cc1cc(F)ccc1Oc1cc(C(F)(F)F)ccc1C(=O)Nc1cc[nH]c(=O)c1
Activity [1]: Active
Activity [6]: inactive
Retention time [2]: 8.56 min
